We go through 8 molecules from PubChem BioAssay (NCI).

Common to all, as to assay: inhibition of tumour cell growth, NCI panel, 48 h
For experiment [1], the system named is HOP-62 NSCLC.
For experiment [2], the system named is OVCAR-8 ovarian.
The test system of experiment [3] is SF-268 CNS.
Experiment [4] relates to SR leukemia.
Experiment [5] deals with NCI/ADR-RES ovarian.
Experiment [6] has as its system SK-MEL-28 melanoma.
In experiment [7] the test system is HT29 colon.
Experiment [8] relates to ACHN renal.
The test system of experiment [9] is SF-539 CNS.
Experiment [10] concerns NCI-H460 lung.
In experiment [11] the test system is M14 melanoma.
Experiment [12] deals with IGROV1 ovarian.
Experiment [13] deals with SF-295 CNS.
The test system of experiment [14] is COLO 205 colon.
Experiment [15] relates to T-47D breast.
The test system of experiment [16] is EKVX NSCLC.
The test system of experiment [17] is UACC-62 melanoma.
Experiment [18] relates to UACC-257 melanoma.
Experiment [19] has as its system MDA-MB-231 breast.
Experiment [20] deals with BT-549 breast.

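In this assay, cells in 96-well plates receive the compound at five concentrations for 48 hours. Endpoints are linearly interpolated between the surrounding concentrations. TGI: total growth inhibition.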 Bounds are passed on as bounds.

With `COc1ccc(C(=O)c2nc3ccccc3nc2N2CCN(c3ccccc3)CC2)cc1OC`, the TGI in experiment [1], in experiment [2], in experiment [3], in experiment [4], in experiment [5] and in [6] was more than 100 µM throughout. The TGI in experiment [7], in experiment [8], in experiment [9], in [10], in experiment [11] and in experiment [12] was more than 100 µM in each case. In addition, the TGI in experiment [13], in experiment [14], in experiment [15], in experiment [16], in experiment [17] and in experiment [18] was more than 100 µM each time.
Take `COc1ccc(NC(=O)C(C#N)=C(SC)SC)cc1`: the TGI in [1], in experiment [3], in experiment [4], in experiment [19], in [20] and in [6] was more than 100 µM each time. In addition, the TGI in experiment [7], in experiment [8], in experiment [9], in experiment [10], in [11] and in experiment [12] was more than 100 µM in each case. The TGI in experiment [13], in experiment [14], in experiment [15], in [16], in experiment [17] and in experiment [18] was more than 100 µM in each case.
As for `COC(=O)CCC(=O)c1ccc2c(c1)CC1(C2)Cc2ccc(C(=O)CCC(=O)OC)cc2C1`, the TGI in experiment [1] was more than 100 µM; in [2], more than 100 µM; in experiment [4] it was 88.5 µM; in experiment [5], more than 100 µM; in experiment [19] it was more than 100 µM; in experiment [7], more than 100 µM. Moreover, the TGI in [8], in experiment [9], in experiment [11], in experiment [12], in experiment [13] and in experiment [14] was more than 100 µM each time. Further, the TGI in experiment [15], in experiment [16], in [17] and in [18] was more than 100 µM in each case.
Regarding `COn1oc(=O)c2ccccc21`, the TGI in experiment [1], in [2], in experiment [3], in experiment [5], in experiment [19] and in [20] was more than 100 µM throughout. Further, the TGI in experiment [6], in experiment [7], in experiment [8], in experiment [9], in experiment [10] and in experiment [11] was more than 100 µM in each case. Besides, the TGI in [12], in experiment [13], in [14], in experiment [16], in experiment [17] and in [18] was more than 100 µM throughout.
As to `c1cc(C2=NCCO2)c2ccsc2c1`, the TGI in experiment [1], in experiment [2], in [3], in experiment [4], in experiment [5] and in experiment [19] was more than 100 µM each time. For the same molecule, the TGI in [6], in experiment [7], in experiment [8], in experiment [9], in experiment [10] and in experiment [11] was more than 100 µM in each case. In addition, the TGI in experiment [12], in experiment [13], in [14], in [15], in [16] and in [17] was more than 100 µM throughout. In addition, the TGI in [18] was more than 100 µM.
For the molecule `CSc1nc(-c2ccccc2)nc(C(C#N)C#N)n1`, the TGI in [1], in experiment [2], in [3], in experiment [5], in experiment [19] and in [6] was more than 100 µM in each case. The TGI in [7], in experiment [8], in experiment [9], in experiment [11], in experiment [12] and in experiment [13] was more than 100 µM in each case. The TGI in experiment [14], in experiment [15], in experiment [16], in experiment [17] and in experiment [18] was more than 100 µM each time.
Consider `COc1ccc(-c2cc(=O)c3cc(Cl)ccc3[nH]2)cc1`, for which the TGI in [1], in experiment [2], in experiment [3], in [4], in experiment [6] and in [7] was more than 100 µM each time. In addition, the TGI in experiment [8], in [9], in [10], in experiment [11], in [12] and in experiment [13] was more than 100 µM each time. Also, the TGI in experiment [14], in experiment [16], in experiment [17] and in [18] was more than 100 µM each time.
On to `CN(C)c1ccc(C2CC(=O)CC(c3ccc(N(C)C)cc3)C23C(=O)NC(=S)NC3=O)cc1` (centres undefined), for which the TGI in [1] is 45.6 µM; in experiment [3], more than 100 µM; in [4], more than 100 µM; in experiment [5] it was more than 100 µM; in [19], more than 100 µM; in [6], more than 100 µM. In addition, the TGI in [7], in [8], in experiment [9], in experiment [10], in experiment [11] and in experiment [13] was more than 100 µM in each case. For the same molecule, the TGI in experiment [14], in experiment [15], in [16], in [17] and in experiment [18] was more than 100 µM each time.
